Values after ≈ are worked out from the molar mass of the structure shown. “Also recorded” adds a separate entry of the source. Like-named read-outs stand apart in the source and are kept apart here.
Columns and labels:
Type in all cases: cell-based
[1] = test system: Cryptococcus neoformans (13690); assay: Broth dilution assay, F3
Protocol: Both broth dilution and agar dilution assays were used to assess the antifungal activity of the compounds of the invention. The cultures were maintained in Sabouraud dextrose broth (SDB) and diluted with […]. 2.5 l of SDB was prepared and distributed into sterile vessels as follows: 49 ml into 1 vessel, 27 ml into 3 vessels, 45 ml into 2 vessels.
Five mg/ml concentration of each compound was prepared using DMSO as the solvent; warming and sonication were necessary to dissolve each compound completely. The compounds were then diluted in SDB according to the following protocol:
5. 1 ug/ml--5 ml (3)+45 ml SDB
The compound at each concentration in SDB was then dispensed into 6 tubes each containing 4 ml […]. Controls (without any compound) were also prepared to insure that the solvent itself was not fungicidal or fungistatic.
Cultures were grown in SDB for 24 h at 30° C. C. albicans and C. neoformans were diluted 1:10 in SDB before inoculation. Inoculation volume for yeasts was 2 drops of diluted cells per tube. The fungal cultures were homogenized before inoculation. The same volume was added, but without dilution. All tubes were incubated at room temperature on a rotating wheel. After 16 h of incubation at room temperature, the fungistatic assay was set up on agar plates. […] Yeasts were inoculated onto SDA (the corresponding agar) plates and fungi onto mycosel agar plates. These plates were then incubated at room temperature.

[2] = test system: Ca. albicans MY1029; assay: Agar dilution assay; conditions: Candida albicans, MY1029, 48 h, read-out: Minimum inhibitory concentration
Excerpt: (§1) For the agar dilution assay, the test panel consisted of 18 yeastlike and 3 Filamentus fungii. Four media were used. These were yeast nitrogen base dextrose (0.5% agar) (YNBDA); pH 5.5; YNBDA with pH adjusted to pH 7.5; and micrological agar (MA), pH 7.0; and Sabouraud dextrose agar, pH 5.7. The media was manufactured by Difco (Detroit, MI) and prepared according to the manufacturer's instructions.
(§2) The test compounds were solubilized in 10% aqueous DMSO; the control drug, Nystatin, was solublized in 10% aqueous DMF. The drugs were serially diluted twofold in sterile water to yield concentrations of 1.28 mg/ml to […]. One ml of diluted drug was added to 9 ml of cooled (50° C.) molten agar in plastic petri plates to yield final drug concentrations in the agar ranging from 128 to 0.063 ug/ml. Appropriate solvent and media control plates were prepared as well, and all plates stored in the dark at 4° C. overnight. The yeast cultures, maintained in yeast maltose (YM; Difco), were transferred to fresh YM medium and incubating overnight at 37° C. with shaking at 250 rpm. After incubation each culture was diluted in sterile saline to yield concentrations of 3×10^5 to 3×10^6 cfu/ml. Isolates of aspergillis and penicillium were made on potato dextrose agar slants, and spore suspensions were made following vigorous shaking with sterile glass beads. The spore preparation were used as inocula for these fungi.
(§3) Each prepared place was inoculated with the 21-member panel using a Denleigh multipoint inoculator (Sussex, England). The inoculator delivers approximately 1 ul to the agar surface, resulting in inoculation of from 3×10^2 to 3×10^3 cfu. The plates were incubated at 28° C. for 48 h, and the minimum inhibitory concentrations (MIC) of each drug were recorded as the lower concentration of the drug permitting no growth or growth of less than 3 cfu/spot.

[3] = test system: Ca. albicans MY1013; assay: Agar dilution assay; conditions: Candida albicans, MY1013, 48 h, read-out: Minimum inhibitory concentration
Excerpt: as §1, §2, §3

[4] = test system: A. flavus MF0383; assay: Agar dilution assay; conditions: Aspergillus flavus, MF0383, 48 h, read-out: Minimum inhibitory concentration
Excerpt: as §1, §2, §3

[5] = test system: Sac. cerevisiae MY1027; assay: Agar dilution assay; conditions: Saccharomyces cerevisiae, MY1027, 48 h, read-out: Minimum inhibitory concentration
Excerpt: as §1, §2, §3

[6] = test system: Ca. albicans MY1055; assay: Agar dilution assay; conditions: Candida albicans, MY1055, 48 h, read-out: Minimum inhibitory concentration
Excerpt: as §1, §2, §3

[7] = test system: Penicillium italicum MF2819; assay: Agar dilution assay; conditions: MF2819, 48 h
Excerpt: as §1, §2, §3

[8] = test system: Ca. albicans MY0992; assay: Agar dilution assay; conditions: Candida albicans, MY0992, 48 h, read-out: Minimum inhibitory concentration
Excerpt: as §1, §2, §3

[9] = test system: Cr. neoformans MY1146; assay: Agar dilution assay; conditions: Cryptococcus neoformans, MY1146, 48 h, read-out: Minimum inhibitory concentration
Excerpt: as §1, §2, §3

[10] = test system: Aspergillus fumigatus MY4839; assay: Agar dilution assay; conditions: MY4839, 48 h
Excerpt: as §1, §2, §3

[11] = test system: Candida albicans MY1058; assay: Agar dilution assay; conditions: MY1058, 48 h
Excerpt: as §1, §2, §3

[12] = test system: Ca. rugosa MY1022; assay: Agar dilution assay; conditions: Diutina rugosa, MY1022, 48 h, read-out: Minimum inhibitory concentration
Excerpt: as §1, §2, §3

[13] = test system: 18 yeastlike and 3 Filamentus fungii; assay: Agar dilution assay, whole panel; conditions: for MIC: 48 h
Excerpt: as §1, §2, §3

[14] = MA pH 7.0, read-out: Minimum inhibitory concentration
[15] = SDA pH 5.7, read-out: Minimum inhibitory concentration
[16] = YNBDA pH 5.5, read-out: Minimum inhibitory concentration
[17] = YNBDA pH 7.5, read-out: Minimum inhibitory concentration

## CCCCCCCCc1ccc2nc(N)nc(N)c2c1C [2,4-Diamino-5-methyl-6-n-octylquinazoline]
[1]; Table 2, F3, Sabouraud Dextrose Broth pH 5.5, read-out: C Fungicidal
  MFC: 3 µg/mL (≈ 10.5 µM)
[1]; Table 2, F3, Sabouraud Dextrose Broth pH 5.5, read-out: S Fungistatic
  MIC: 3 µg/mL (≈ 10.5 µM)
[2]; MA pH 7.0
  MIC: 32 µg/mL (≈ 112 µM)
[2]; SDA pH 5.7
  MIC: > 128 µg/mL
[2]; YNBDA pH 5.5
  MIC: > 128 µg/mL
[2]; YNBDA pH 7.5
  MIC: 32 µg/mL (≈ 112 µM)
[3]; MA pH 7.0
  MIC: 16 µg/mL (≈ 55.9 µM)
[3]; SDA pH 5.7
  MIC: 128 µg/mL (≈ 447 µM)
[3]; YNBDA pH 5.5
  MIC: > 128 µg/mL
[3]; YNBDA pH 7.5
  MIC: 16 µg/mL (≈ 55.9 µM)
[4]; MA pH 7.0
  MIC: 64 µg/mL (≈ 223 µM)
[4]; SDA pH 5.7
  MIC: > 128 µg/mL
[4]; YNBDA pH 5.5
  MIC: > 128 µg/mL
[4]; YNBDA pH 7.5
  MIC: 16 µg/mL (≈ 55.9 µM)
[5]; MA pH 7.0
  MIC: 4 µg/mL (≈ 14 µM)
[5]; SDA pH 5.7
  MIC: 128 µg/mL (≈ 447 µM)
[5]; YNBDA pH 5.5
  MIC: > 128 µg/mL
[5]; YNBDA pH 7.5
  MIC: 4 µg/mL (≈ 14 µM)
[6]; MA pH 7.0
  MIC: 32 µg/mL (≈ 112 µM)
[6]; SDA pH 5.7
  MIC: > 128 µg/mL
[6]; YNBDA pH 5.5
  MIC: > 128 µg/mL
[6]; YNBDA pH 7.5
  MIC: 32 µg/mL (≈ 112 µM)
[7]; [14]
  MIC: 4 µg/mL (≈ 14 µM)
[7]; [15]
  MIC: 64 µg/mL (≈ 223 µM)
[7]; [16]
  MIC: 128 µg/mL (≈ 447 µM)
[7]; [17]
  MIC: 8 µg/mL (≈ 27.9 µM)
[8]; MA pH 7.0
  MIC: 16 µg/mL (≈ 55.9 µM)
[8]; SDA pH 5.7
  MIC: > 128 µg/mL
[8]; YNBDA pH 5.5
  MIC: > 128 µg/mL
[8]; YNBDA pH 7.5
  MIC: 16 µg/mL (≈ 55.9 µM)
[9]; MA pH 7.0
  MIC: 4 µg/mL (≈ 14 µM)
[9]; SDA pH 5.7
  MIC: 16 µg/mL (≈ 55.9 µM)
[9]; YNBDA pH 5.5
  MIC: 128 µg/mL (≈ 447 µM)
[9]; YNBDA pH 7.5
  MIC: 8 µg/mL (≈ 27.9 µM)
[10]; [14]
  MIC: 64 µg/mL (≈ 223 µM)
[10]; [15]
  MIC: > 128 µg/mL
[10]; [16]
  MIC: > 128 µg/mL
[10]; [17]
  MIC: 32 µg/mL (≈ 112 µM)
[11]; [14]
  MIC: 16 µg/mL (≈ 55.9 µM)
[11]; [15]
  MIC: > 128 µg/mL
[11]; [16]
  MIC: > 128 µg/mL
[11]; [17]
  MIC: 32 µg/mL (≈ 112 µM)
[12]; pH 5.5, YNBDA pH 5.5
  MIC: > 128 µg/mL
[12]; pH 7, MA pH 7.0
  MIC: 64 µg/mL (≈ 223 µM)
[12]; pH 7.5, YNBDA pH 7.5
  MIC: 32 µg/mL (≈ 112 µM)
[13]; pH 5.7
  MIC: > 128 µg/mL
[13]; Candida tropicalis, pH 5.5
  MIC: ≥ 128 µg/mL
[13]; Table 3 panel
  antifungal activity in words: inhibitory for a large variety of yeast and Filamentus fungii; also recorded: extremely toxic with regard to a wide variety of fungi

— patent publication US4818753A, “Synthesis and method of use for 2, 4 diaminoquinazoline” (SRI International, priority 1987, dated 1989)
